The source of these data is ChEMBL document CHEMBL1201862, “PubChem BioAssay data set” (2004).

The target of data set [1] is Cytochrome P450 2D6 (Homo sapiens, UniProt P10635).
The target of data set [2] is Cytochrome P450 2C9 (Homo sapiens, UniProt P11712).
A short description of data set [3]: viability of uninfected HEp-2 cells – cell-based, HTS, cytotoxicity control for RSV inhibitor project, dose response (AID 2410). The data set is classed as functional. Conditions: human respiratory syncytial virus.
Data set [4] concerns the target T1, Cytochrome P450 1A2 (Homo sapiens, UniProt P05177).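 Also: PubChem cytochrome P450 panel assay, CYP1A2 panel member.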
T1 sequence (P05177 whole entry): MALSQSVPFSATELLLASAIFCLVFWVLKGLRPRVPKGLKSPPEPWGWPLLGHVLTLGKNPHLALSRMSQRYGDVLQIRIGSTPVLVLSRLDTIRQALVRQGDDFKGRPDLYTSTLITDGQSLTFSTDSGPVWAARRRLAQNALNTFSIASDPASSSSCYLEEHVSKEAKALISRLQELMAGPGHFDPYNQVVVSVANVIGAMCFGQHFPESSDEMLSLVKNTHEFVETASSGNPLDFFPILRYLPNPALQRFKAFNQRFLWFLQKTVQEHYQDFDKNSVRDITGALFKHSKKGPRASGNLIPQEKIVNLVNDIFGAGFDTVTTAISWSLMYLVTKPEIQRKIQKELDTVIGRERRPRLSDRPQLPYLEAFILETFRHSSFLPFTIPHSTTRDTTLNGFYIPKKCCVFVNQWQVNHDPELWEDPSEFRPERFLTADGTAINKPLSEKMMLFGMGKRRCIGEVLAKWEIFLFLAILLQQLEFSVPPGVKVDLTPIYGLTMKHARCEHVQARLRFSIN

The test system of data set [5] is INS1. The data set is described as follows: INS-1E survival protection against cytokine death – cell-based, luminescence, retest, dose response (AID 449756).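 Also: cell death triggered by IL-1 beta plus TNF-alpha plus IFN-gamma mixture; protective hits raise ATP signal compared with cytokine alone wells.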 The data set is classed as functional. Conditions: Rattus norvegicus.
For data set [6], the target named is Cytochrome P450 2C19 (Homo sapiens, UniProt P33261). The data set is described as follows: Cytochrome panel assay with activity outcomes. Panel member name: p450-cyp2c19 Compounds with AC50 equal or less than 10 uM are considered active. The format is functional.
Chain of Cytochrome P450 2C19 (P33261 whole entry): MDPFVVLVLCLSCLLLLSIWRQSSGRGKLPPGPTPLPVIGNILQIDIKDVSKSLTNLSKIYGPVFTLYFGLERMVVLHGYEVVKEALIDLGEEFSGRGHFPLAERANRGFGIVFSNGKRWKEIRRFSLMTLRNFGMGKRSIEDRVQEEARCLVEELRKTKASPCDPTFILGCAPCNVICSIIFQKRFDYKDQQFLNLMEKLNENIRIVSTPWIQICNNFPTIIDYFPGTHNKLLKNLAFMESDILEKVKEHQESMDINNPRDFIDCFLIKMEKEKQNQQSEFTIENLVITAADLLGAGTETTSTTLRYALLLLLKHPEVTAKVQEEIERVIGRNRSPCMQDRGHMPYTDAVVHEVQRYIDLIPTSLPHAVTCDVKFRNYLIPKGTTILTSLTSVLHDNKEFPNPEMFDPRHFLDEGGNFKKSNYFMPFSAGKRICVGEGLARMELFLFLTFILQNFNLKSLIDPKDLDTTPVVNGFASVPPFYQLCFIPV
The target of data set [7] is Cytochrome P450 3A4 (Homo sapiens, UniProt P08684).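 Also: CYP3A4 tested as one member of a cytochrome P450 panel screen.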
Chain of Cytochrome P450 3A4 (P08684 whole entry): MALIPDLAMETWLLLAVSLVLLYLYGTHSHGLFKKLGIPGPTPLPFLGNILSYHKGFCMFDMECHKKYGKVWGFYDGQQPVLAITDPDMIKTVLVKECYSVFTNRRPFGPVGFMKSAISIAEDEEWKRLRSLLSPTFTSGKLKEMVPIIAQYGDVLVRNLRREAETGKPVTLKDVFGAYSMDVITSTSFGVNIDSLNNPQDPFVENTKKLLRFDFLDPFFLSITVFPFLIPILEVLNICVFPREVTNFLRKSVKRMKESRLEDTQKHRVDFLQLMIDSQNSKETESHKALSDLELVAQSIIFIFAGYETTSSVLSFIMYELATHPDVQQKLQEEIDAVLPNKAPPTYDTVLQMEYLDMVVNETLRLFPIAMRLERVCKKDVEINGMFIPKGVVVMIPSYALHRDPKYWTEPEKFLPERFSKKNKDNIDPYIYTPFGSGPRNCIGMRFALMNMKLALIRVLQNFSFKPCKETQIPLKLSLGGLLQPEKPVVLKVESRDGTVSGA
Data set [8] can be described thus: Trypanosoma cruzi growth suppression in host cells – NIH3T3 host cells, beta-gal luminescence, confirmation (AID 2044).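 Also: intracellular parasites grown in NIH/3T3 mouse fibroblasts as host cells; luminescent beta-galactosidase reporter signal from transgenic T. cruzi replicating inside host cells; inhibitors lower the luminescence signal.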 The data set is classed as functional, cell-based.
A short description of data set [9]: NIH3T3 cell viability loss – ATP luminescence, mouse fibroblasts, counter-screen, dose response (AID 2010).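 Also: cells exposed to compound for about 90 hours before reading.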 The data set is classed as functional, cell-based. Background: The purpose of a counterscreen is to sort out artefacts and off-target activity.
The target of data set [10] is T2, Corticotropin-releasing factor receptor 2/Corticotropin-releasing factor-binding protein (Homo sapiens, UniProt P24387+Q13324).
T2 sequence (Q13324 whole entry): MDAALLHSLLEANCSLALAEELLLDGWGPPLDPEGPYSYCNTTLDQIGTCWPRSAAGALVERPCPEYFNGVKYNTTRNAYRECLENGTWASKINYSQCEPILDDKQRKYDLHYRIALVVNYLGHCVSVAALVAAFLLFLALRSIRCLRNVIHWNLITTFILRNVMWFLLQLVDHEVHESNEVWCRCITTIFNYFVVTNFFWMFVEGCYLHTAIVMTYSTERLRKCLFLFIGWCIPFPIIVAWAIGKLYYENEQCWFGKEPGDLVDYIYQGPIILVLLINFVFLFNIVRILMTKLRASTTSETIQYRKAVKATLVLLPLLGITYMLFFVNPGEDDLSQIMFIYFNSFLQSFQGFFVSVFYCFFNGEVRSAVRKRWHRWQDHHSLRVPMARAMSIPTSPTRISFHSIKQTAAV
T2 sequence (P24387 whole entry): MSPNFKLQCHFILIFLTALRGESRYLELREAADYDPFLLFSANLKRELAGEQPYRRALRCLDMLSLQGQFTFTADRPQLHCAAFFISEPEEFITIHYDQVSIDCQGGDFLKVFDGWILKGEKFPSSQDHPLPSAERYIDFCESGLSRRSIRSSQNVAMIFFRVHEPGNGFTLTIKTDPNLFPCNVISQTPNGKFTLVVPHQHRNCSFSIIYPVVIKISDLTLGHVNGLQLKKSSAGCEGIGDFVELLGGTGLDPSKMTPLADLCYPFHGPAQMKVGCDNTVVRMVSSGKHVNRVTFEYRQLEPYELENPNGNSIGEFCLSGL
The data set is described as follows: Dose Response confirmation of uHTS hits for small molecule antagonists of the CRF-binding protein and CRF-R2 receptor complex. The format is functional. Conditions: read-out: IC50_Mean.

Data set [11] has as its target T2, Corticotropin-releasing factor receptor 2/Corticotropin-releasing factor-binding protein. The data set is described as follows: activators of CRF receptor 2 with binding protein – uHTS hits, confirmation (AID 602473). The data set is classed as functional. Conditions: read-out: EC50_Mean.
Data set [12] is described as follows: luciferase reporter signal suppression in cells – H4 neuroglioma cells, luminescence, dose response (AID 1990). The data set is classed as functional, cell-based. Background: Reporter assays use an easily measured gene product as a stand-in for the process of interest.
A short description of data set [13]: Luminescence Cell-Based Dose Response HTS to Identify Inhibitors of 5'UTR Stem-Loop Driven Prion Protein mRNA Translation in H4 Neuroglioblastoma Cells. [Related pubchem assays: 1827 (Project Summary), 1813 (Primary HTS)]. The data set is classed as functional.
Data set [14] can be described thus: alpha-synuclein stem-loop luciferase translation blockers – H4 neuroglioma cells, luminescence, confirmation (AID 1988). The format is functional, cell-based.
Data set [15] is described as follows: viability of PTEN-deleted HCT116 cells – cell-based, HCT116 PTEN knockout, dose response (AID 1047).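 Also: HCT116 colon tumor cells with PTEN knocked out; cells exposed to compound for 60 hours before readout; potency for loss of cell viability measured by luminescence.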 The data set is classed as functional.

Structures are written as SMILES. Where “and” joins values, the source holds several entries; their conditions need not be identical. Identical values can stand only once. Calls of active or inactive are those of the source.

Chain of Cytochrome P450 2C9 (P11712 whole entry): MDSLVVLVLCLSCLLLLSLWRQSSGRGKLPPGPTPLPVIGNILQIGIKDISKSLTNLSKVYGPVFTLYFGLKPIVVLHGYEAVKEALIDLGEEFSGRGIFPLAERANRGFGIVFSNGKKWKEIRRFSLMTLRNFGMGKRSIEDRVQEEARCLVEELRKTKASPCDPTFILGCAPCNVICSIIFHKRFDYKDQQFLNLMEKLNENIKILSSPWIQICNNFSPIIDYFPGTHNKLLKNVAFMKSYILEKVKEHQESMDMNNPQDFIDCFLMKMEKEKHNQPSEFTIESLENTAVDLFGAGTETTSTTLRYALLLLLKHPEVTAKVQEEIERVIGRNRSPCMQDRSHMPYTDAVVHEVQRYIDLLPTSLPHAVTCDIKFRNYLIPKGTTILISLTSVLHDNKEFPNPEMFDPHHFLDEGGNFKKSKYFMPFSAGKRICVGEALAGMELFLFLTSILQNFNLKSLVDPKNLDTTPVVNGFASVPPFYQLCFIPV
Chain of Cytochrome P450 2D6 (P10635 whole entry): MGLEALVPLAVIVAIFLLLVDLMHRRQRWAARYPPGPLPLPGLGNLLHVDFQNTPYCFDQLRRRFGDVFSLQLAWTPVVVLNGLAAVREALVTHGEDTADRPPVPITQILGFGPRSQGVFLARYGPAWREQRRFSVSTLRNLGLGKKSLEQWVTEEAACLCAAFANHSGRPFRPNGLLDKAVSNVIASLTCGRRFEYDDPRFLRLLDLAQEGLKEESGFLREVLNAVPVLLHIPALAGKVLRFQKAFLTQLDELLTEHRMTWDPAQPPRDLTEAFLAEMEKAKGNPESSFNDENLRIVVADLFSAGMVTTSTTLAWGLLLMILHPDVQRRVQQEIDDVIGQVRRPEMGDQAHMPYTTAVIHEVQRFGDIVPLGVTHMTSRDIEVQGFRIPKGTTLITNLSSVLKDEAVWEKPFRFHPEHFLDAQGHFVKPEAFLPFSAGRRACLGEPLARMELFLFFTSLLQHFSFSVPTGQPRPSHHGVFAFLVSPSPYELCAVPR

In the case of `Cc1cc(C)c(/C=C2/C(=O)Nc3ccccc32)[nH]1`, the results for the AC50 in data set [1] and in [2] were 0.398 µM (inconclusive) and 2.51 µM (inconclusive), respectively.
As for `O=C(NCc1nnc(SCC(=O)N2CCCc3ccccc32)n1-c1ccccc1)c1cccc2ccccc12`, the CC50 (as a rule, the concentration giving 50% cytotoxicity) in [3] is > 50 µM (active).
As for `Cc1onc(-c2ccccc2Cl)c1C(=O)Nc1cccc2cccnc12`, the CC50 in data set [3] is 3.16 µM (active).
On to `COCCn1c(=O)c(-c2cc(F)cc(F)c2)nc2cnc(N(C)C)nc21`, for which the AC50 (as a rule, the concentration at which the activity in the assay is half-maximal) in data set [4] is 5.01 µM (inconclusive).
For `CS(=O)(=O)Nc1cccc(-c2nc(N3CCNCC3)c3ccccc3n2)c1`, in data set [4], the AC50 is 20 µM (inconclusive).
As for `Cn1cc(-c2nc3cncnc3n(Cc3ccc(F)cc3)c2=O)c2ccccc21`, the AC50 in [4] was 1.26 µM (inconclusive).
Same read-out and setting: for `NCOC(=O)Cc1ccc(Br)cc1` the value was 0.2 µM (active).
On to `O=C(C1CCC1)N1CCc2cc(S(=O)(=O)Nc3ccc4c(c3)OCCO4)ccc21`, for which the AC50 in data set [5] is 5.88 µM (active).
With `O=C(c1ccco1)N1CCN(c2ncnc3c2cnn3-c2ccccc2)CC1`, the CC50 in data set [3] was 38.5 µM (active).
Consider `Cn1c(CC(=O)Nc2ccc(Cl)c(Cl)c2)nnc1SCC(=O)N1CCN(c2ccccc2)CC1`, for which the AC50 in data set [1] was 25.1 µM (inconclusive); in data set [4] it was 15.8 µM (inconclusive).
In the case of `COc1ccc2[nH]cc(CCNc3ncncc3-c3c(C)noc3C)c2c1`, the AC50 in [1] was 20 µM (inconclusive); in data set [2], 1.26 µM (inconclusive).
Consider `CC(=O)OC[C@H]1O[C@@H](O/N=C2/[C@H]3O[C@@H]3[C@@H](O)[C@H]3[C@H]2CCn2c(=O)n(-c4ccccc4)c(=O)n23)[C@H](OC(C)=O)[C@@H](OC(C)=O)[C@@H]1OC(C)=O`, for which the AC50 entry in [6] was “inconclusive”; in [1] it was 3.16 µM (inconclusive).
With `O=C1C(c2ccccn2)=[N+]([O-])c2ccccc21`, in data set [4], the AC50 is 0.158 µM (active).
With `c1ccc(-c2ccc(N3CC4(CCNCC4)C3)cc2)cc1`, the concentration at half-maximal activity (AC50) in data set [1] and in data set [7] was 25.1 µM (inconclusive) each time.
On to `CC12CCC(C(=O)Nc3cccc4ccccc34)(C1Br)C2(C)C` (stereo not drawn), for which the AC50 in data set [1] was 20 µM (inconclusive); in [2], 2.51 µM (inconclusive).
As for `N#Cc1cnn2c(-c3cccc(C(F)(F)F)c3)ccnc12`, the CC50 in data set [3] was 47 µM (active).
As for `O=c1c2c3c(sc2n(CCN2CCCCC2)c(=O)n1Cc1ccco1)CCCCC3`, the EC50 is 2.76 µM (active) in [8] and > 30 µM (not active) in [9]. For the same molecule, the AC50 in [5] is 17.9 µM (active).
Regarding `O=c1c2ccccc2nc2n1C(CBr)CN2` (stereo not drawn), the IC50 in [10] is > 47.1 µM (inactive). In addition, in [11], the EC50 is > 53 µM (inactive).
As for `COc1ccccc1NC(=O)CCc1c(C)nc(O)c(C#N)c1C`, the results for the half-maximal activity concentration (AC50) entry in data set [6], in data set [4] and in [7] were “inconclusive”, 0.00631 µM (inconclusive) and 17.8 µM (inconclusive), respectively.
Take `CCC/C=C(\CCC)C(NS(=O)(=O)c1ccccc1)c1ccc(C(F)(F)F)cc1` (stereo not drawn): the AC50 in [4] was 12.6 µM (inconclusive).
`CCOC(=O)c1c(C)n(C)c2ccc(OC)c(NS(=O)(=O)c3ccc(Cl)s3)c12`: the values for the AC50 in data set [4], in data set [7] and in data set [2] were 5.62 µM (inconclusive), 1.58 µM (inconclusive) and 3.16 µM (inconclusive), respectively.
For the molecule `Clc1ccccc1OCCCCN1CCCC1`, the AC50 in data set [6] (read-out: AC50) was 28.2 µM (inconclusive); in data set [4], 15.8 µM (inconclusive).
Take `CCOc1ccc(-c2c(=O)n(OCc3ccccn3)c3ccccc3[n+]2[O-])cc1`: the AC50 was 15.8 µM (inconclusive) in data set [6] (read-out: AC50), 12.6 µM (inconclusive) in [4], 12.6 µM (inconclusive) in data set [7] and 5.62 µM (inconclusive) in [2].
Turning to `COc1cccc(Nc2ncc3nc(-c4cccs4)c(=O)n(-c4ccccc4)c3n2)c1`, the AC50 was 3.16 µM (inconclusive) in data set [4] and 20 µM (inconclusive) in data set [7].
Take `COc1ccc(-n2c(=O)c(CCc3ccccc3)nc3cnc(OC)nc32)cc1`: the values for the concentration at half-maximal activity (AC50) in data set [1] and in data set [2] were 20 µM (inconclusive) and 7.94 µM (inconclusive), respectively.
Turning to `O=C1c2ccccc2NC(c2ccc(F)cc2)N1Cc1ccco1` (stereo not drawn), the AC50 in [1] is 0.398 µM (inconclusive); in data set [7], 14.1 µM (inconclusive).
Regarding `CC(C)OC(=O)/C(=C\c1ccc2c(c1)c1ccccc1n2C)NC(=O)c1ccccc1`, the AC50 is 2.51 µM (inconclusive) in [6] (read-out: AC50), 2.24 µM (inconclusive) in [4] and 6.31 µM (inconclusive) in data set [2].
Consider `COc1ccc(CCNC(=O)c2c(N)n(CCN3CCOCC3)c3nc4ccccc4nc23)cc1OC`, for which the EC50 in data set [12] is > 120 µM (not active); in data set [13], 13.3 µM (active); in [14], > 120 µM (not active); in [15], 94.9 µM (active).
On to `O=C(Nc1cccc(F)c1)N1CC[C@@]2(CCCN(C(=O)Oc3ccccc3)C2)C1`, for which the figures for the AC50 in data set [1], in data set [4] and in data set [7] were 20 µM (inconclusive), 15.8 µM (inconclusive) and 5.01 µM (inconclusive), respectively.
Consider `CSc1cccc(NC(=O)C(C)C)c1`, for which the IC50 in [10] was > 47.1 µM (inactive). Moreover, the EC50 in data set [11] was > 53 µM (inactive).
The like results for `CCOc1ccc(C2C(C(=O)c3ccc4c(c3)OCCO4)=C(O)C(=O)N2CCCN2CCOCC2)cc1` (stereo not drawn) were, in that order, > 47.1 µM (inactive) and > 53 µM (inactive).
The like results for `CC#CCCC(=O)N1C=Cc2ccccc2C1C#N` (stereo not drawn) were, in that order, > 47.1 µM (inactive) and > 53 µM (inactive).
Turning to `CSc1nnnn1-c1ccc(Cl)cc1`, the cytotoxic concentration (CC50) in data set [3] was 30.7 µM (active).
On the same count and under the same terms, the figure for `O=C(Nc1ccncc1)Nc1cccc(C(F)(F)F)c1` is > 50 µM (active).
In the case of `CC(=O)Nc1ccc(S(=O)(=O)NC(CC(=O)NCCC2=CCCCC2)C(C)C)cc1` (stereo not drawn), the AC50 in [1] is 0.708 µM (inconclusive); in data set [2] it was 8.91 µM (inconclusive).
For `c1ccc2sc(N3CCN(Cc4ccc5c(c4)OCO5)CC3)nc2c1`, in that order: 39.8 µM (inconclusive) and 7.94 µM (inconclusive).
With `CCCN[C@@H]1CCc2c(OC)cccc2[C@@H]1C`, the AC50 in data set [4] is 31.6 µM (inconclusive).
On to `Cc1nc2ccccc2c(=O)n1/N=C/c1c(O)ccc2ccccc12`, for which the AC50 in [5] was 6.35 µM (active).
On to `COc1ccc(/C(O)=C(\C#N)c2nc3ccccc3n2C)cc1OC`, for which the AC50 was 39.8 µM (inconclusive) in data set [6] (read-out: AC50), 1.58 µM (inconclusive) in data set [1], 3.55 µM (inconclusive) in data set [7] and 0.251 µM (inconclusive) in data set [2].
Regarding `CN(CCc1ccc(Cl)c(Cl)c1)C[C@@H](O)COc1ccc(NS(C)(=O)=O)cc1`, the AC50 in [4] and in data set [7] was 15.8 µM (inconclusive) throughout.
On to `CN1CCN(C2=Nc3ccccc3Oc3ccc(Cl)cc32)CC1` [LOXAPINE SUCCINATE], for which the AC50 in data set [1] is 10 µM (inconclusive) and 31.6 µM (inconclusive); in data set [4] it was 31.6 µM (inconclusive) and 3.16 µM (inconclusive).
